Results taken from patent US10808008B2, “Aromatic-cationic peptides and uses of same” (Cornell University, priority 2012, dated 2020).
Where two headings read alike, the source gives them in different places.

What was measured:
[1] = test system: isolated rat kidney mitochondria / cytochrome c-deficient mitoplasts; experiment: Fluorescence quenching by isolated mitochondria or cytochrome c-deficient mitoplasts; format: binding
Protocol: The quenching by cytochrome c was not displaced by sequential additions of bovine serum albumin (FIG. 12C, A+arrows) (500 μg/ml). […] Accordingly, aromatic-cationic peptides of the present disclosure are useful for the prevention or treatment of diseases or disorders characterized by dysregulation of cytochrome c.
Uptake of [atn]SS-02 by isolated mitochondria or cytochrome c-deficient mitoplasts was determined by fluorescence quenching of [atn]SS-02 (λex/λem=320/420) upon addition of a fresh mitochondrial or mitoplast suspension (0.35 mg).
Mitochondria were isolated from the kidney of male Sprague-Dawley rats (Charles River Laboratories International, Inc., Wilmington, Mass.) weighing 250 to 300 g. Excised kidneys were cut and incubated in wash buffer (200 mM mannitol, 10 mM sucrose, 5 mM HEPES, 1 g/L fatty-acid-free BSA, to pH to 7.4 with KOH) on ice for 10 minutes. Samples were washed 2 times in isolation buffer (wash buffer with 1 mM EGTA), homogenized for 3 minutes, and then centrifuged in 20 ml of isolation buffer at 900×g for 10 minutes. The white fatty acid layer was then removed and the […]. The supernatant was centrifuged at 11,000×g for 10 minutes, and the pellet was re-suspended in 800 μl of wash buffer and kept on ice for further analysis.
Mitoplasts deficient in cytochrome c were prepared by first treating fresh or once-frozen mitochondria with 3.3 mg/ml digitonin for 45 minutes on ice, in order to remove the mitochondrial outer membrane. To remove electrostatically-bound cytochrome c, […] pH 7.4 was then added to the mix and centrifuged at 19,000×g for 30 minutes. The pellet was collected and re-dissolved in wash buffer and stored on ice until use. Only mitoplast preparations that responded to the addition of 200 nM exogenous cytochrome c by 4-5 fold increase in mitochondrial respiration (oxygen consumption) were used in the study. […]

cytochrome c = cytochrome c (Equus caballus, UniProt P00004); experiment: Photoluminescence of cytochrome c; format: biochemical; conditions: excitation 532.8 nm
Protocol: Photoluminescence (PL) was carried out to examine the effects of SS-31 on the electronic structure of conduction band of the heme of cytochrome c, an energy state responsible for electronic transport (FIG. 3). A […] laser (532.8 nm) was used to excite electrons in cytochrome c (FIG. 3A). Strong PL emission in cytochrome c state can be clearly identified at 650 nm (FIG. 3B). […] Accordingly, aromatic-cationic peptides of the present disclosure are useful for the prevention or treatment of diseases or disorders characterized by dysregulation of cytochrome c, for enhancing electron capacity in cytochrome c, and for treatment of diseases or disorders characterized by dysregulation of electron capacity in cytochrome c.

[2] = test system: cytochrome c-depleted mitoplasts; experiment: Respiration in cytochrome c-depleted mitoplasts; format: biochemical, rat
Protocol: Rates of respiration were measured in the presence of 500 μM Succinate with or without 100 μM SS-31. The experiment was carried out in triplicate, with n=3. […] Accordingly, aromatic-cationic peptides of the present disclosure are useful for the prevention or treatment of diseases or disorders characterized by dysregulation of cytochrome c.
A model of cytochrome c tightly bound to mitochondrial cardiolipin was used to investigate interaction of SS-31 with cytochrome c-CL complex in mitochondria. After removal of outer membrane with digitonin, mitoplasts were washed with 120 mM KCl to remove all free and electrostatically associated cytochrome c, leaving only cytochrome c tightly bound to CL.

cytochrome c, sequence (P00004 2-105 limits assumed): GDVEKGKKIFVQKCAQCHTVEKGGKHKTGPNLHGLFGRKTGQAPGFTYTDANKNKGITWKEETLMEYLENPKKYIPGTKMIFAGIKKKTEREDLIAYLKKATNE

| Substance | quenching of fluorescence by cytochrome c-depleted/deficient mitoplasts versus mitochondria [1] | quenching of fluorescence by isolated mitochondria ([1]; 10 μM peptide, 0.2 mg mitochondria) | quenching of fluorescence by cytochrome c-depleted/deficient mitoplasts versus mitochondria ([1]; listed as [atn]SS-02) | photoluminescence (PL) intensity of cytochrome c at 650 nm (cytochrome c) | respiration (O2 consumption) in cytochrome c-depleted mitoplasts ([2]; 500 μM succinate, 100 μM SS-31) | complex II respiration in mitoplasts with tightly bound cytochrome c ([2]; mitoplasts washed with 120 mM KCl) |
| --- | --- | --- | --- | --- | --- | --- |
| 2′,6′-Dmt-D-Arg-Phe-(atn)Dap-NH2 [SS-19] | significantly reduced | quenched by sequential addition of 0.2 mg isolated rat renal kidney mitochondria | appreciable in cytochrome c-deficient mitoplasts but was less than in intact mitochondria | – | – | – |
| D-Arg-2′,6′-Dmt-Lys-Phe-NH2 [SS-31] | – | – | – | increased dose-dependently | Enhances Respiration in Cytochrome c-Depleted Mitoplasts | enhances complex II respiration in mitoplasts with cytochrome c tightly bound to inner mitochondrial membrane in a dose-dependent manner |
